Molecules are shown by their SMILES.

Data set [1] is described as follows: In vivo pharmacokinetic experiment in rats, intragastric administration. The note with it: SD rats, 5 mg/kg. The protocol:
The drug concentrations in the plasma of the test animals (rats) at different time points after intragastric administration of the compound of the present disclosure were determined by an LC/MS/MS method. The pharmacokinetic behavior in rats of the compound of the present disclosure was studied and its pharmacokinetic profile was evaluated.
Male, healthy SD rats of SPF grade, 6-8 weeks old, 3 rats in each group.
Intragastric administration: a certain amount of compound was weighed and prepared into a 1 mg/mL white suspension by adding 0.5% by volume of hydroxypropyl methylcellulose, 0.1% by volume of tween 80 and 99.4% by volume of water.
SD rats were administered intragastrically with compound 4 or BLU-5937 at a dose of 5 mg/kg after fasting overnight.
Rats were administered intragastrically with the compound of the present disclosure. 0.2 mL of blood was collected from the jugular vein at 0.25 h, 0.5 h, 1 h, 2 h, 4 h, 8 h and 24 h after the administration, placed in a tube containing EDTA-K2, separated by centrifugation at 4° C. at 4000 rpm for 5 min to obtain plasma, which was stored at −75° C.
Determination of the content of the test compounds at different concentrations in the plasma of rats after intragastric administration: 50 μL of rat plasma at each time point after the administration was taken, 200 μL of a solution of internal standard dexamethasone (50 ng/mL) in acetonitrile was added thereto, and the mixture was vortexed for 30 s to be mixed well, centrifuged at 4° C. at 4700 rpm for 15 min. The supernatant of the plasma sample was subjected to 3-fold dilution with water, and 2.0 μL of the dilution was taken for LC/MS/MS analysis.

A short description of data set [2]: Caco-2 permeability assay. The class given is in vitro ADME. The note with it: human. How it is done:
The apparent permeability coefficient (Papp) of the analytical drug was determined by liquid chromatography-tandem mass spectrometry (LC/MS/MS) through a Caco-2 cell model.
The transfer rate of drug from the apical end to the basal end was determined. 108 μL of HBSS (25 mM HEPES, pH 7.4) containing 10 μM test compound was added to the apical end of the upper chamber of Transwell (purchased from Corning) containing Caco-2 cells (purchased from ATCC) at a density of 6.86×10^5 cells/cm^2, and meanwhile, 8 μL of the sample was added, as an initial dosing-end sample (A-B), to a new 96-well plate to which 72 μL of HBSS (25 mM HEPES, pH 7.4) and 240 μL of acetonitrile (containing 100 nM alprazolam, 200 nM caffeine and 100 nM tolbutamide) had been added, and the plate was vortexed at 1000 rpm for 10 min. 300 μL of HBSS (25 mM HEPES, pH 7.4) was added to the basal end.
The transfer rate of drug from the basal end to the apical end was determined. 308 μL of HBSS (25 mM HEPES, pH 7.4) containing 10 μM test compound was added to wells of the basal end of the plate, and meanwhile, 8 μL of the sample was added, as an initial dosing-end sample (B-A), to a new 96-well plate to which 72 μL of HBSS (25 mM HEPES, pH 7.4) and 240 μL of acetonitrile (containing 100 nM alprazolam, 200 nM caffeine and 100 nM tolbutamide) had been added. The plate was vortexed at 1000 rpm for 10 min, and 100 μL of HBSS (25 mM HEPES, pH 7.4) was added to the apical end.
The transfer rate from the apical end to the basal end and the transfer rate from the basal end to the apical end need to be determined simultaneously.
At the end of the transfer cycle, 8 μL of the sample was taken from the dosing end (apical end of A-B flow and basal end of B-A flow) and added to 72 μL of HBSS (25 mM HEPES, pH 7.4) and 240 μL of acetonitrile (containing 100 nM alprazolam, 200 nM caffeine and 100 nM tolbutamide), and the mixture was added to a new 96-well plate. 80 μL of the liquid was taken directly from each of the basal end of the A-B flow and the apical end of the B-A flow, and added together with 240 μL of acetonitrile (containing 100 nM alprazolam, 200 nM caffeine and 100 nM tolbutamide) to a new 96-well plate. The plates were vortexed at 1000 rpm for 10 min. The samples were centrifuged at 4000 rpm for 30 min. 100 μL of the supernatant was transferred to a new 96-well plate. All samples were analyzed by LC-MS/MS with 100 μL of pure water.
Data were calculated using Microsoft Excel and peak areas were calculated from the chromatograms. The apparent permeability coefficient (Papp) is in cm/s and is calculated using the following formula: […]
Papp is apparent permeability (cm/s×10^−6);
The outflow ratio can be determined by the following equation: […]
(Caco-2 cells form a polarised layer with tight junctions and transporters.)

With `CNC(=O)c1cc(F)c(-c2nc3cc(C)ccn3c2C[C@H]2CN(C(=O)OC)CCO2)c(F)c1` [BLU-5937, reference compound], the “V” value in data set [1] is 1.09 L/kg. Besides, in data set [1] (male, rat, plasma, po), the Tmax came to 0.25 h and the half-life is 2.9 h. In data set [1] (male, rat, po, plasma), this molecule came in with an AUC(0-t) of 361 ng·h/mL and a Cmax of 151 ng/mL. In data set [2] (Caco-2, 10 μM test compound, apical to basal, pH 7.4), this molecule came in with a Papp A→B at 10 μM of 2.4 ×10⁻⁶ cm/s. In data set [2] (Caco-2, Papp (B-A)/Papp (A-B), read-out: Outflow ratio), the efflux ratio at 10 μM is 1.2.

As a reminder, the Tmax is the time from dosing to the highest level. As a reminder, the half-life is the time in which the quantity being followed falls by half. As usually defined, the AUC(0-t) is the area under the concentration-time curve up to a stated or last time point. High values mean more exposure, low ones less exposure. A word on the Cmax: it is the maximum level reached in the sampled fluid or tissue. The Papp A→B is how fast a substance crosses the layer from the apical side. Lower therefore signals slow passage.

Source of the values: patent US20230250095A1, “BENZIMIDAZOLE DERIVATIVES, PREPARATION METHOD THEREFOR AND MEDICAL USE THEREOF” (TUOJIE BIOTECH(SHANGHAI) CO., LTD., priority 2020, published 2023).
